target: T1, human LPAR1 (Homo sapiens, UniProt Q92633); assay: Test Example 1: antagonism against response of LPA-induced increase in intracellular Ca2+ concentration in RH7777 cells stably expressing human LPAR1; type: cell-based; conditions: RH7777 cells stably expressing human LPAR1; Fluo-4 fluorescence, FDSS6000; read-out: IC50 value (concentration producing 50% antagonism against response of LPA-induced increase in intracellular Ca2+ concentration) (converted)
T1 construct: expressed in transfected cells
T1 sequence (Q92633 whole entry): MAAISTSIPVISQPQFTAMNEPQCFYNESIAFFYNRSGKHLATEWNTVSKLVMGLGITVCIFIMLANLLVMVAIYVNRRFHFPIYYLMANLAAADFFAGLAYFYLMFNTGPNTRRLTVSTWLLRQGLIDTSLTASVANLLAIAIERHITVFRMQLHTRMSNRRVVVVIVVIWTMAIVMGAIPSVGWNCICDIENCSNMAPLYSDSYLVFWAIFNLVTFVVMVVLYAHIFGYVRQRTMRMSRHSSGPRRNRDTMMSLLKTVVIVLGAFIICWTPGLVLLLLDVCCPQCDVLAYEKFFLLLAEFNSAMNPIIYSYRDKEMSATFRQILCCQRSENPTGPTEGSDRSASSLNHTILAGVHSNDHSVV
How it was run: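 RH7777 cells stably transfected with human LPAR1 were preincubated with test compound 30 min at 37 °C in HBSS/20 mM HEPES/probenecid/0.05% BSA buffer, pH 7.4, then LPA-stimulated.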

| IC50 [nM] | SMILES |
| --- | --- |
| 2.53 | CCOc1cc([C@@H](C)N(CCCCc2ccccc2)C(=O)NC2(C(=O)O)CC(OC)C2)cc(OCC)c1C(C)=O (stereo partly drawn) [Example 1-85, 1-({[(1R)-1-(4-Acetyl-3,5-Diethoxyphenyl)Ethyl](4-Phenylbutyl) Carbamoyl}Amino)-3-Methoxycyclobutane-1-Carboxylic Acid] |
| 2.36 | COc1cc(C(C)N(CCOCc2ccccc2)C(=O)NC2(C(=O)O)CC(OC)C2)cc(OC)c1C1CC1 (stereo not shown) [Example 5-152] |
| 1.98 | CCOc1cc(C(C)N(CCOCc2ccccc2)C(=O)NC2(C(=O)O)CC(OCC)C2)c(Cl)c(OCC)c1C(C)=O (stereo not shown) [Example 5-212] |
| 1.93 | CCOc1cc([C@@H](C)N(CCOCc2ccccc2)C(=O)N[C@]2(C(=O)O)C[C@H](OC)C2)c(C)c(OCC)c1C(C)=O [Example 5-74] |
| 4 | CCOc1cc(C(C)N(CCOCc2ccccc2)C(=O)NC2(C(=O)O)CCOCC2)c(C)c(OCC)c1C(C)=O (stereo not shown) [Example 5-226] |
| 2.23 | CCOc1cc([C@@H](C)N(CCCCc2ccccc2)C(=O)NC2(C(=O)O)CC2)cc(OCC)c1C(C)=O [Example 1-16, 1-({[(1R)-1-(4-Acetyl-3,5-Diethoxyphenyl)Ethyl](4-Phenylbutyl) Carbamoyl}Amino)Cyclopropane-1-Carboxylic Acid] |
| 4.3 | COc1cc(C(C)N(CCOCc2ccccc2)C(=O)NC2(C(=O)O)CC(OC)C2)c(C)c(OC)c1C(C)=O (stereo not shown) [Example 5-154] |
| 24 | CCOc1c(C2CC2)ccc([C@@H](C)N(CCOC(C)c2ccccc2Cl)C(=O)NC2(C(=O)O)CCC2)c1C (stereo partly shown) [Example 4-178] |
| 14 | CCOc1cc([C@@H](C)N(CCC(F)(F)Cc2ccccc2)C(=O)NC2(C(=O)O)CC(OC)C2)c(C)c(OCC)c1C (stereo partly shown) [Example 5-77] |
| 2.34 | CCNc1cc([C@@H](C)N(CCCCc2ccccc2)C(=O)NC2(C(=O)O)CC(F)(F)C2)cc(OCC)c1C#N [Example 5-115] |
| 23.7 | CCOc1cc([C@@H](C)N(CCCCc2ccccc2)C(=O)NC2(C(=O)O)CC2)cc(OCC)c1C [Example 1-17] |
| 2.97 | CCOc1cc([C@@H](C)N(CCCCc2ccccc2)C(=O)NC2(c3nnn[nH]3)CC(F)(F)C2)cc(OCC)c1C(C)=O [Example 10-7, N-[(1R)-1-(4-Acetyl-3,5-Diethoxyphenyl)Ethyl]-N′-[3,3-Difluoro-1-(1H-Tetrazol-5-Yl)Cyclobutyl]-N-(4-Phenylbutyl) Urea] |
| 10.3 | CCOc1c(C(C)=O)ccc([C@@H](C)N(CCO[C@@H](C)c2ccccc2)C(=O)NC2(C(=O)O)CC(OC)C2)c1C (stereo partly shown) [Example 4-131] |
| 38.4 | CCOc1cc(C(C)N(CCCCc2ccccc2)C(=O)NC2(c3nn[nH]n3)CCCC2)cc(OCC)c1C (stereo not shown) [Example 10-18] |
| 126 | CCOc1cc([C@@H](C)N(CCc2ccc(Cl)cc2)C(=O)NC2(C(=O)O)CC(F)(F)C2)cc(OCC)c1C [Example 4-11] |
| 3.58 | CCNc1cc(C(C)N(CCCCc2ccccc2)C(=O)NC2(C(=O)O)CCC2)cc(OCC)c1C#N (stereo not shown) [Example 5-113] |
| 3.13 | CCOc1c(C(C)=O)ccc([C@@H](C)N(CCO[C@@H](C)c2ccccc2)C(=O)NC2(C(=O)O)CC(F)(F)C2)c1C [Example 4-119] |
| 8.25 | CCOc1cc([C@@H](C)N(CCC(F)(F)Cc2ccccc2)C(=O)NC2(C(=O)O)CCOCC2)cc(OCC)c1C1CC1 [Example 4-96] |
| 7.44 | CCOc1cc(C(C)N(CCCCc2ccccc2)C(=O)NC2(C(=O)O)CC(F)(F)C2)cc(OCC)c1OCC (stereo not shown) [Example 1-55] |
| 1.62 | CCOc1cc([C@@H](C)N(CCOCc2ccccc2)C(=O)N[C@]2(C(=O)O)C[C@@H](OC)C2)c(Cl)c(OCC)c1C(C)=O [Example 5-36] |
| 30.7 | COc1cc(C(C)N(CCOCc2ccccc2)C(=O)NC2(C(=O)O)CCC2)c(C)c(OC)c1C (stereo not shown) [Example 5-136] |
| 4.05 | CCOc1cc([C@@H](C)N(CCCCc2cccc(C)c2)C(=O)NC2(C(=O)O)CC(F)(F)C2)cc(OCC)c1C [Example 4-16] |
| 2.82 | CCOc1cc(C(C)N(CCCCc2ccccc2)C(=O)NC2(C(=O)O)CC(F)(F)C2)ccc1C(C)O (stereo not shown) [Example 5-9] |
| 10.8 | COc1cc([C@@H](C)N(CCO[C@@H](C)c2ccccc2)C(=O)NC2(C(=O)O)CC(OC)C2)c(Cl)c(OC)c1C(C)=O (stereo partly shown) [Example 5-124] |
| 16.7 | CCOc1cc(C(C)N(CCOC(C)c2ccccc2)C(=O)N[C@]2(c3nn[nH]n3)C[C@@H](OC)C2)cc(OCC)c1C(C)O (stereo partly shown) [Example 10-17] |
| 9.55 | CCOc1cc(C(C)N(CCCCc2ccccc2)C(=O)NC2(C(=O)NS(C)(=O)=O)CC(F)(F)C2)cc(OCC)c1C(C)O (stereo not shown) [Example 7-2] |
| 32.9 | CCOc1cc(C(C)N(CCCCc2ccccc2)C(=O)NC2CC(C(=O)O)C2)c(Cl)c(OCC)c1C(C)=O (stereo not shown) [Example 5-45] |
| 1.36 | CCOc1cc([C@@H](C)N(CCCCc2ccccc2)C(=O)NC2(C(=O)O)CC(F)(F)C2)c(Cl)c(OCC)c1C(C)=O [Example 5-46] |

| IC50 [nM] | SMILES |
| --- | --- |
| 3.84 | CCOc1cc([C@@H](C)N(CCO[C@@H](C)c2ccccc2)C(=O)N[C@]2(C(=O)O)C[C@H](OCC)C2)c(Cl)c(OCC)c1C(C)=O [Example 5-27] |
| 3.37 | COc1cc(C(C)N(CCO[C@@H](C)c2ccccc2)C(=O)NC2(C(=O)O)CC(F)(F)C2)c(C)c(OC)c1C1CC1 (stereo partly shown) [Example 5-150] |
| 4.47 | CCOc1cc([C@@H](C)N(CCCC(F)(F)c2ccccc2)C(=O)NC2(C(=O)O)CC(F)(F)C2)cc(OCC)c1C1(O)CC1 [Example 4-57] |
| 4.86 | CCOc1cc(C(C)N(CCOC(C)c2ccccc2)C(=O)NC2(c3nn[nH]n3)CC(OC)C2)cc(OCC)c1C(C)=O (stereo not shown) [Example 10-16] |
| 3.62 | CCOc1cc([C@@H](C)N(CCO[C@@H](C)c2ccccc2)C(=O)N[C@]2(C(=O)O)C[C@H](OC)C2)c(C)c(OCC)c1C(C)=O [Example 5-72] |
| 1.41 | CCOc1cc(C(C)N(CCOCc2ccccc2)C(=O)NC2(C(=O)O)CC(F)(F)C2)cc(OCC)c1C1CC1 (stereo not shown) [Example 5-196] |
| 15.2 | CCOc1cc([C@@H](C)N(CCO[C@@H](C)c2ccccc2)C(=O)N[C@H]2C[C@@](C)(C(=O)O)C2)cc(OCC)c1C(C)=O [Example 4-120] |
| 1.75 | CCOc1cc([C@@H](C)N(CCO[C@@H](C)c2ccccc2)C(=O)N[C@]2(C(=O)O)C[C@@H](OCC)C2)c(C)c(OCC)c1C [Example 5-82, trans-1-[([(1R)-1-(3,5-diethoxy-2,4-dimethylphenyl)ethyl]{2-[(1S)-1-phenylethoxy]ethyl}carbamoyl)amino]-3-ethoxycyclobutane-1-carboxylic acid] |
| 2.75 | CCOc1cc([C@@H](C)N(CCC(F)(F)Cc2ccccc2)C(=O)NC2(C(=O)O)CC(F)(F)C2)cc(OCC)c1C(C)O (single isomer, unassigned) [Example 4-86] |
| 2.63 | CCOc1cc(C(C)N(CCCC(F)(F)c2ccccc2)C(=O)NC2(c3nn[nH]n3)CC2)cc(OCC)c1C(C)=O (stereo not shown) [Example 10-4] |
| 2500 | CCCCN(C(=O)NC1(C(=O)O)CC(F)(F)C1)[C@H](C)c1cc(OCC)c(C)c(OCC)c1 [Example 4-1, 1-({Butyl[(1R)-1-(3,5-Diethoxy-4-Methylphenyl)Ethyl]Carbamoyl}Amino)-3,3-Difluorocyclobutane-1-Carboxylic Acid] |
| 2.74 | CCOc1cc(C(C)N(CCOCc2ccccc2)C(=O)NC2(C(=O)O)CC(OC)C2)c(Cl)c(OCC)c1C(C)=O (stereo not shown) [Example 5-205] |
| 7.15 | CCOc1cc(C(C)N(CCCCc2ccccc2)C(=O)NC2(C(=O)O)CC(F)(F)C2)cc(COC)c1C (stereo not shown) [Example 1-74] |
| 6.48 | CCOc1cc([C@@H](C)N(CCCCc2ccccc2)C(=O)NC2CC(C(=O)O)C2)cc(OCC)c1C1CC1 (stereo partly shown) [Example 1-130] |
| 2.69 | CCOc1cc([C@@H](C)N(CCCC(F)(F)c2ccccc2)C(=O)N[C@]2(C(=O)O)C[C@@H](OC)C2)cc(OCC)c1C(C)=O [Example 4-64] |
| 2.91 | CCOc1cc([C@@H](C)N(CCO[C@@H](C)c2ccccc2)C(=O)N[C@]2(C(=O)O)C[C@@H](OCC)C2)cc(OCC)c1C1CC1 [Example 4-138, trans-1-[([(1R)-1-(4-cyclopropyl-3,5-diethoxyphenyl)ethyl]{2-[(1S)-1-phenylethoxy]ethyl}carbamoyl)amino]-3-ethoxycyclobutane-1-carboxylic acid] |
| 6.38 | CCOc1cc(C(C)N(CCCCc2ccccc2)C(=O)NC2CC(C(=O)O)C2)cc(OCC)c1C(C)=O (stereo not shown) [Example 1-128] |
| 13 | COc1cc(C(C)N(CCCCc2ccccc2)C(=O)NC2(C(=O)O)CCC2)cc(OC)c1C (stereo not shown) [Example 1-23] |
| 5.46 | CCOc1cc(C(C)N(CCCCc2ccccc2)C(=O)NC2(C(=O)O)CC(F)(F)C2)cc(OCC)c1C(=O)OC (stereo not shown) [Example 1-60] |
| 3.25 | C=C(C)c1c(OCC)cc(C(C)N(CCCCc2ccccc2)C(=O)NC2(C(=O)O)CC(F)(F)C2)cc1OCC (stereo not shown) [Example 1-54] |
| 0.47 | CCOc1cc(C(C)N(CCOCc2ccccc2)C(=O)NC2(C(=O)O)CCC2)c(C)c(OCC)c1C1CC1 (stereo not shown) [Example 5-192] |
| 2.5 | CCOc1c(C2CC2)ccc([C@@H](C)N(CCOC(C)c2ccccc2)C(=O)NC2(C(=O)O)CC(F)(F)C2)c1C (stereo partly shown) [Example 4-167] |
| 1010 | CCOC(=O)C1(NC(=O)N(CCO[C@@H](C)c2ccccc2)C(C)c2cc(OCC)c(C(C)=O)c(OCC)c2)CC(OCC)C1 (stereo partly shown) [Example 6-9] |
| 2.9 | CCOc1cc(C(C)N(CCCCc2ccccc2)C(=O)N[C@]2(C(=O)O)C[C@@H](OC)C2)c(C)c(OCC)c1C(C)=O (stereo partly shown) [Example 5-198] |
| 3.92 | CCOc1cc(C#N)cc(C(C)N(CCCCc2ccccc2)C(=O)NC2(C(=O)O)CC(F)(F)C2)c1 (stereo not shown) [Example 5-20] |
| 3.62 | COc1cc(C(C)N(CCOCc2ccccc2)C(=O)NC2(C(=O)O)CC(F)(F)C2)c(C)c(OC)c1C (stereo not shown) [Example 5-147] |
| 3.68 | CCOc1cc([C@@H](C)N(CCCC(F)(F)c2ccccc2)C(=O)NC2(C(=O)O)CCOCC2)cc(OCC)c1C(C)=O [Example 4-73] |
